Measured values reported in patent US9567317B2, “Multicomponent crystalline system comprising nilotinib and selected co-crystal formers” (BASF SE, priority 2012, dated 2017).

Settings: relative humidity changed from 0 to 95% according to the measurement program (FIG. 4)

| water content change (water uptake) | Structure (SMILES) |
| --- | --- |
| Δm = 4.2% | Cc1cn(-c2cc(NC(=O)c3ccc(C)c(Nc4nccc(-c5cccnc5)n4)c3)cc(C(F)(F)F)c2)cn1.Cl.O.O [Nilotinib monohydrochloride dihydrate form A] |
| Δm = 3.2% | Cc1cn(-c2cc(NC(=O)c3ccc(C)c(Nc4nccc(-c5cccnc5)n4)c3)cc(C(F)(F)F)c2)cn1.Cl.O [Nilotinib monohydrochloride monohydrate form B] |
